According to patent publication US20230257385A1, “SALT AND SOLID FORMS OF TABERNANTHALOG” (priority 2021, published 2023):

Columns and labels:
[1] = Heat-up/cool-down crystallisation screen of sorbate salt (Example 10, Experiments 5, 8); assay type: physicochemical; conditions: Experiment 5; for Observations (t = 1 @ T = 20° C.): Tabernanthalog sorbate salt (Form A) crystallised from binary solvents, solvent A 3.0 vol plus solvent B, one pair per sample; for XRPD (oven dried @ 40° C., 20 h) / XRPD (centrifuged, wet): heat-up/cool-down crystallisation from binary solvents; for XRPD (centrifuged, wet): wet pellet
Method: The relevant solvent (0.225 ml, 3.0 vol) was added to the appropriate vial and the suspensions were stirred and warmed to temperature. If dissolution was not observed, further solvent was added until the solute dissolved, or aliquots of a secondary co-solvent were added to complete dissolution. Once dissolved, the solutions were left to cool down and stand undisturbed under sub-ambient conditions for several days. After crystallisation was judged complete, the products were isolated by centrifugation and the pellets were dried at 40° C. under reduced pressure. Products from the crystallisation (wet and dry) were initially analysed by XRPD (9-minute method), further analyses of certain products were performed by ^1H NMR, DSC and TGA, if the diffraction pattern indicated differences.

[2] = Solubility determinations in SIF buffers FaSSIF, FeSSIF, FaSSGF (Example 8, Experiment 5); conditions: tabernanthalog sorbate salt, 37° C.
Method: The temperature was maintained at 37° C. for 24 h. […] The suspensions were sampled at the relevant time points and centrifuged. The centrifuged pellets, obtained at the time points were analysed by XRPD as a wet pellet and dried, for evidence of form change.
The temperature was maintained at 37° C. for 24 h.
The suspension was sampled at the relevant time points and centrifuged. […] The centrifuged pellets, obtained at the time points were analyzed by XRPD as a wet pellet and dried, for evidence of form change.

| SMILES | Observations (t = 1 @ T = 20° C.) [1] | XRPD (oven dried @ 40° C., 20 h) [1] | XRPD (centrifuged, wet) [1] | Tabernanthalog RRT = 1.00 (trended HPLC data, chemical purity) ([2]; t = 1 h in FaSSGF) | Tabernanthalog RRT = 1.00 (trended HPLC data, chemical purity) ([2]; t = 3 h in FaSSGF) | Tabernanthalog RRT = 1.00 (trended HPLC data, chemical purity) ([2]; t = 24 h in FaSSGF) |
| --- | --- | --- | --- | --- | --- | --- |
| C/C=C/C=C/C(=O)O.COc1ccc2c3c([nH]c2c1)CCN(C)CC3 [Experiment 5-Sample G] | Partial | Form A | Pattern #6 |  |  |  |
| C/C=C/C=C/C(=O)O.COc1ccc2c3c([nH]c2c1)CCN(C)CC3 [Experiment 5-Sample F] | Partial | Form A | Form A |  |  |  |
| C/C=C/C=C/C(=O)O.COc1ccc2c3c([nH]c2c1)CCN(C)CC3 [Experiment 5-Sample D] | Liquid | Form A | Form A |  |  |  |
| C/C=C/C=C/C(=O)O.COc1ccc2c3c([nH]c2c1)CCN(C)CC3 [Sample 5-L1] |  |  |  | 99.52 |  |  |
| C/C=C/C=C/C(=O)O.COc1ccc2c3c([nH]c2c1)CCN(C)CC3 [Sample 5-L4] |  |  |  |  | 99.36 |  |
| C/C=C/C=C/C(=O)O.COc1ccc2c3c([nH]c2c1)CCN(C)CC3 [Experiment 5-Sample C] | Solid | Form A | Form A |  |  |  |
| C/C=C/C=C/C(=O)O.COc1ccc2c3c([nH]c2c1)CCN(C)CC3 [Experiment 5-Sample I] | Liquid | Form A | Form A |  |  |  |
| C/C=C/C=C/C(=O)O.COc1ccc2c3c([nH]c2c1)CCN(C)CC3 [Sample 5-L10] |  |  |  |  |  | 99.33 |
| C/C=C/C=C/C(=O)O.COc1ccc2c3c([nH]c2c1)CCN(C)CC3 [Experiment 5-Sample P] | Partial | Form A | Form A |  |  |  |
| CC=CC=CC(=O)O.COc1ccc2c3c([nH]c2c1)CCN(C)CC3 [Experiment 5-Sample R] | Liquid | Form A | Pattern #4 |  |  |  |
| C/C=C/C=C/C(=O)O.COc1ccc2c3c([nH]c2c1)CCN(C)CC3 [Experiment 5-Sample L] | Partial | Form A | Form A |  |  |  |
